Measurements reported in ChEMBL document CHEMBL3301361, “Experimental in vitro DMPK and physicochemical data on a set of publicly disclosed compounds”.

Experiments:
physchem = settings: octan-1-ol/water, pH 7.4, LogD7.4
in vitro [1] = settings: human
in vitro [2] = settings: human, plasma, PPB
in vitro [3] = settings: hepatocytes

| logD (physchem) | microsomal CLint (in vitro [1]; liver microsomes) [µL/min/mg] | fraction unbound at 5 h (in vitro [2]) | hepatocyte CLint (in vitro [3]) [µL/min/1e6 cells] | microsomal CLint (in vitro [1]; microsomes) [µL/min/mg] | Structure (SMILES) |
| --- | --- | --- | --- | --- | --- |
| 0.9 | 20.4 | 0.201 | > 150 | – | CCOC(=O)c1cnc2c(N)cccc2c1O |
| 1.6 | 12.3 | 0.266 | 64.6 | – | O=C(CSc1ccccc1)N1CCN(C(=O)c2ccco2)CC1 |
| 1.63 | 4.17 | 0.002 | 66.1 | – | Cc1oc(-c2ccccc2)cc1C(=O)Nc1cccc(C(=O)O)c1 |
| 2.79 | 104 | 0.04 | > 150 | – | COc1cnc(-c2ccccn2)nc1N(C)c1ccccc1 |
| 2.58 | – | 0.0661 | > 150 | 138 | O=C(Nc1ccccc1Cl)c1cc[nH]n1 |
| 2.47 | 21.4 | 0.0568 | 10.5 | – | CN[C@@H](C)C(=O)N[C@H](C(=O)N1CC[C@H]2CCN(CCc3ccccc3)C[C@H]21)C1CCCCC1 |
| 3.22 | – | 0.002 | 13.8 | < 3 | O=C(O)CCc1ccc(OCc2cc(Cl)ccc2-c2ccccc2)cc1 |
| 3.17 | – | 0.0477 | > 150 | 46.8 | Nc1ncnc2c1c(COc1cccc(Cl)c1)nn2C1CCOCC1 |
| 3 | – | 0.0801 | 85.1 | 112 | O=C(Nc1nc2ccccc2n1CCCO)c1cccc([N+](=O)[O-])c1 |
| 3.44 | 19.1 | 0.0287 | > 150 | – | O=C(Nc1cc(-c2ccncc2)c[nH]c1=O)[C@H](Cc1ccccc1)NC1(c2ccccn2)CC1 |
| 2.4 | > 150 | 0.201 | 33.9 | – | CC(C)N(CCCNC(=O)Nc1ccc(C(C)(C)C)cc1)C[C@H]1O[C@@H](n2ccc3c(N)ncnc32)[C@H](O)[C@@H]1O |
| 0.9 | – | 0.154 | 14.4 | 21.4 | Nc1ncnc2c1ncn2[C@@H]1O[C@H](CSCCCNC(=O)NCc2ccccc2)[C@@H](O)[C@H]1O |
| 2.5 | 126 | 0.0784 | 110 | – | CC(C)c1ccc(NC(=O)NCCCSC[C@H]2O[C@@H](n3cnc4c(N)ncnc43)[C@H](O)[C@@H]2O)cc1 |
| 2.5 | 21.4 | 0.0836 | 93.3 | – | Nc1ncnc2c1ncn2[C@@H]1O[C@H](CSCCCNC(=O)Nc2ccc(Cl)cc2)[C@@H](O)[C@H]1O |
| -0.82 | 3.98 | 0.465 | 12.9 | – | CC(=O)Nc1nc(CCc2ccc(NC(=N)N)cc2)cs1 |
| 2.7 | 105 | 0.0245 | 61.7 | – | CC(C)C(=O)Nc1nc(-c2ccccn2)cc2ccccc12 |

More lines, now with the values behind:

| Structure (SMILES) | logD (physchem) | microsomal CLint (in vitro [1]; liver microsomes) [µL/min/mg] | fraction unbound at 5 h (in vitro [2]) | hepatocyte CLint (in vitro [3]) [µL/min/1e6 cells] | microsomal CLint (in vitro [1]; microsomes) [µL/min/mg] |
| --- | --- | --- | --- | --- | --- |
| CCOc1ccc(-n2c([C@@H](C)N(CC3CCN(C)CC3)C(=O)Cc3ccc(F)c(C(F)(F)F)c3)nc3ncccc3c2=O)cc1 | 1.4 | 21.4 | 0.129 | 19.9 | – |
| CCN(CC)CCNc1ncnc2c1sc1nc(N3CCOCC3)c3c(c12)CCCC3 | 3.3 | 9.55 | 0.0784 | 26.3 | – |
| Cc1cc(CCCOc2c(Cl)cc(C3=NCCO3)cc2Cl)on1 | 3.72 | – | 0.0034 | > 150 | 66.1 |
| O=S1(=O)CC(O)C(N2CCC(c3ccccc3)CC2)C1 (stereo unspecified) | 1.4 | – | 0.569 | 75.9 | 5.25 |
| O=C(C1CCN(c2nnc(-n3cccc3)s2)CC1)N1CCN(Cc2ccc3c(c2)OCO3)CC1 | 2.5 | > 150 | 0.0447 | 50.1 | – |
| Cc1cc(C)cc(-c2nnc(SCC(=O)N3CCN(C(=O)c4ccco4)CC3)o2)c1 | 3 | – | 0.0321 | 89.1 | 67.6 |
| Cc1cc(C)nc(SCC(N)=O)n1 | 0.23 | < 3 | 0.788 | < 3 | – |
| CC(=O)c1cc2ccc(O)cc2oc1=O | 0.87 | – | 0.0149 | > 150 | 28.2 |
| COc1ccc(NC(=O)CCc2c(C)nc3nc(C)nn3c2C)cc1 | 1.4 | – | 0.176 | 3.09 | 3.98 |
| C[C@H](NC(=O)c1cccc2c1N(Cc1ccc(Cl)cc1)CC2)c1ccc(C(=O)O)cc1 | 1.47 | 15.8 | 0.0133 | 13.2 | – |
| Cc1ccc(S(=O)(=O)N2N=Cc3ccccc3B2O)cc1 | 0.05 | 14.1 | 0.0836 | 6.17 | – |
| CCCS(=O)(=O)N1N=Cc2cc(Cl)ccc2B1O | -0.4 | 9.77 | 0.17 | < 3 | – |
| COc1ccc2nc(C)cc(N3CC(CNC(=O)C4CC4)OC3=O)c2c1 (stereo unspecified) | 1.55 | – | 0.324 | 19.5 | 8.91 |
| C[C@@H](C(=O)NCCN1CCCC1)c1ccc(OS(=O)(=O)C(F)(F)F)cc1 | 1.64 | < 3 | 0.324 | 6 | – |
| Cc1ccc(S(=O)(=O)Nc2c(C(=O)N[C@@H](C)C(C)(C)C)c(C)nn2C2CCN(CC(F)(F)F)CC2)cc1 | 1.08 | – | 0.117 | < 3 | < 3 |
| CCCNC(=O)CSc1ccc(S(=O)(=O)N2CCCC2)cn1 | 1.55 | – | 0.349 | 55 | 12.6 |
| COc1cc(O)c(C(CC(=O)N2CC(C)CC(C)C2)c2ccc3c(c2)OCO3)c(OC)c1 (stereo unspecified) | 4.3 | – | 0.0024 | > 150 | > 150 |
| C[C@@H](NC(=O)C1CCNCC1)c1ccc(Nc2ncc3cc(-c4ccncc4)ccc3n2)cc1 | 0.4 | 4.17 | 0.0477 | < 3 | – |
| Clc1ccc2ncc(-c3cccc(NC4CNC4)n3)n2c1 | 1.19 | < 3 | 0.163 | 19.1 | – |
| Clc1cccc(-c2cnc3ccc(NC4CCOCC4)nn23)c1 | 4.3 | 9.12 | 0.009 | 14.8 | – |
| O=C(O)c1cncc(-c2ccc(Cl)c(C(=O)NCC34CC5CC(CC(C5)C3)C4)c2)c1 | 0.85 | – | 0.0099 | 7 | 66 |
| CC1N=C(N)N=C(N)N1c1ccc(Cl)cc1 (stereo unspecified) | -0.8 | 3.31 | 0.747 | < 3 | – |
| COC(=O)[C@H](c1ccccc1Cl)N1CCc2sccc2C1 [CLOPIDOGREL] | 3.69 | – | 0.0136 | 137 | > 150 |
